# Results reported in patent US10517889B2, “Modulators of SMAD7 expression” (Ionis Pharmaceuticals, Inc., priority 2017, dated 2019).
# Several values for one entry are separate records, joined by “and”; a condition that tells them apart may be missing. Equal entries are not always repeated. Strand notation (5' to 3'): a small letter for the sugar, then the base; units joined by * are phosphorothioate-linked, units joined directly phosphodiester-linked; [ ] holds rarer units or linkages, { } end groups; capitals alone tell only the bases. k = constrained ethyl (cEt); [5mC] = 5-methylcytosine; d = 2'-deoxy (DNA)
# What was measured:
# human SMAD7 mRNA [1] = test: Antisense inhibition of human SMAD7 mRNA expression in Hep3B cells by 3-10-3 cEt gapmers, 10,000 nM, electroporation (Example 2); assay type: cell-based; conditions: approximately 24 hours, primer probe set RTS5062, relative to untreated control cells; for % inhibition of SMAD7 mRNA expression: Hep3B cells, electroporation with 10,000 nM antisense oligonucleotide; for % Inhibition: SMAD7 mRNA, Hep3B cells, 10,000 nM antisense oligonucleotide, electroporation
# In short: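 Percent inhibition of SMAD7 mRNA, relative to untreated cells, after ~24 h exposure of electroporated Hep3B cells to 10,000 nM cEt gapmer; levels by qRT-PCR, corrected for total RNA.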
# human SMAD7 mRNA [2] = test: Dose-dependent inhibition of human SMAD7 mRNA expression in Hep3B cells, comparison with ION 28453 (Example 4); assay type: cell-based; conditions: electroporation, approximately 16 hours; for IC50: SMAD7 mRNA
# Procedure: Cells were plated at a density of 20,000 cells per well and transfected using electroporation with 0.25 μM, 0.74 μM, 2.22 μM, 6.67 μM, or 20.00 μM concentrations of antisense oligonucleotide, as specified in the Tables below. After a treatment period of approximately 16 hours, RNA was isolated from the cells and SMAD7 mRNA levels were measured by quantitative real-time PCR. Primer probe set RTS5062 was used to measure human SMAD7 mRNA levels. SMAD7 mRNA levels were adjusted according to total RNA content, as measured by RIBOGREEN®. Results are presented as percent inhibition of SMAD7 mRNa expression, relative to untreated control cells.
# The half maximal inhibitory concentration (IC50) of each oligonucleotide is also presented. […] Several newly designed antisense oligonucleotides had greater potency than the previously disclosed lead compound, ION 28453.
# human SMAD7 mRNA [3] = test: Dose-dependent inhibition of human SMAD7 mRNA expression in Hep3B cells (Example 3, Study 1 and 2); assay type: cell-based; conditions: electroporation; for % inhibition of SMAD7 mRNA expression: approximately 16 hours
# In short: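 Hep3B cells, 20,000 per well, electroporated with antisense oligonucleotide at 0.31, 1.25, 5.00 or 20.00 μM (first series) or 0.74, 2.22, 6.67 or 20.00 μM (second series). After ~16 h, SMAD7 mRNA measured by RT-qPCR (RTS5062), normalised to RIBOGREEN total RNA. Percent inhibition vs untreated cells; IC50 derived.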
# mouse Smad7 mRNA = test: Murine Smad7 mRNA expression after oral administration in BALB/c mice (Example 11); assay type: in vivo; conditions: 500 mg/kg/day oral for 3 weeks, 24 hours after last dose
# Procedure: The objective of this study was to evaluate the efficacy of Ionis SMAD7 antisense oligonucleotides in BALB/c mice following daily oral administration. The Ionis oligonucleotides are cross-reactive with mouse Smad7 mRNA.
# Groups of BALB/c mice were orally administered 500 mg/kg/day for 3 weeks of human Smad7 oligonucleotides, ION 790615, ION 798781, or ION 830025, or mouse Smad7 oligonucleotide, ION 772797 (a 3-10-3 cEt gapmer with phosphorothioate backbone and sequence […]; designated herein as SEQ ID NO: 2743). One group of mice was orally administered PBS daily for 3 weeks. Each group contained 4 mice.
# To evaluate the efficacy of the oligonucleotides, murine Smad7 mRNA expression in the liver, kidneys, duodenum, ileum, and colon was measured using primer probe set RTS1114.
Substance,% inhibition of SMAD7 mRNA expression (human SMAD7 mRNA [1]) [%],% Inhibition (human SMAD7 mRNA [1]) [%],% inhibition of SMAD7 mRNA expression (human SMAD7 mRNA [2]; 0.74 μM) [%],% inhibition of SMAD7 mRNA expression (human SMAD7 mRNA [2]; 2.22 μM),% inhibition of SMAD7 mRNA expression (human SMAD7 mRNA [2]; 6.67 μM),% inhibition of SMAD7 mRNA expression (human SMAD7 mRNA [2]; 20.00 μM) [%],IC50 (human SMAD7 mRNA [2]),"% inhibition of SMAD7 mRNA expression (human SMAD7 mRNA [3]; 740 nM, Study 2, relative to untreated control cells) [%]","% inhibition of SMAD7 mRNA expression (human SMAD7 mRNA [3]; 2220 nM, Study 2) [%]","% inhibition of SMAD7 mRNA expression (human SMAD7 mRNA [3]; 6670.0 nM, Study 2) [%]","% inhibition of SMAD7 mRNA expression (human SMAD7 mRNA [3]; 20000.0 nM, Study 2) [%]",IC50 (human SMAD7 mRNA [3]; Study 2 (740-20000 nM)) [µM],"Mouse Smad7 mRNA expression (% inhibition), Colon (mouse Smad7 mRNA; colon) [% inhibition]","Mouse Smad7 mRNA expression (% inhibition), Duodenum (mouse Smad7 mRNA; duodenum) [% inhibition]","Mouse Smad7 mRNA expression (% inhibition), Ileum (mouse Smad7 mRNA; ileum) [% inhibition]","Mouse Smad7 mRNA expression (% inhibition), Kidney (mouse Smad7 mRNA; kidney) [% inhibition]","Mouse Smad7 mRNA expression (% inhibition), Liver (mouse Smad7 mRNA; liver) [% inhibition]",% inhibition of SMAD7 mRNA expression (human SMAD7 mRNA [2]; 0.25 μM) [%]
772568 (antisense kA*kG*k[5mC]*d[5mC]*dT*d[5mC]*dT*dT*dG*dA*d[5mC]*dT*dT*k[5mC]*k[5mC]*kG) [compound 772568],82,45,0,22% and 25%,36% and 47%,61,13 µM and 9 µM,41,62,58,79,1,–,–,–,–,–,–
"772797 (AATGAACTGTATCTCC; sugars from the 5' end k3 d10 k3, all phosphorothioate, methylation of C not given here) [compound 772797]",–,–,–,–,–,–,–,–,–,–,–,–,1,36,8,0,7,–
799184 (antisense kA*kA*k[5mC]*d[5mC]*dT*dT*dT*dG*dT*dA*dG*dT*dT*kA*kG*kA) [compound 799184],58,48,10,18%,51%,78,6 µM,–,–,–,–,–,–,–,–,–,–,0
800821 (antisense kG*k[5mC]*kT*dA*dA*dA*dT*dT*dT*d[5mC]*d[5mC]*dA*dA*kT*kG*kA) [compound 800821],–,56,30,35%,58%,79,4 µM,–,–,–,–,–,–,–,–,–,–,14
